From patent publication US20100234467A1, “METHODS FOR IMPROVING BIOAVAILABILITY OF A RENIN INHIBITOR” (priority 2006, published 2010) come the findings set out here.

The series concerns Caco-2 cell monolayers. The class given is in vitro ADME. The source says:
Alternatively, the in vitro transporter affinity of a drug substance can be determined and approximated by a Caco-2 cell assay as described, e.g., in […] et al., Pharm. Act. Helv. 71, 309-327 (1996), or as illustrated herein in the Examples. The identification of the transporter protein and the efficacy of a compound to inhibit the efflux system involved may as well be determined in the Caco-2 cell assay. […] Caco-2 cell monolayers grown on PET filters for 21-25 days are used for the transport experiments. The flux of compounds across Caco-2 cell monolayers grown on PET filters as well as across PET filters alone without Caco-2 cells is determined as follows: […] To start the experiment, the medium in the donor compartment (0.35 mL for apical and 1.15 mL for basolateral sides) is replaced with donor solution (compound in HBSS, when relevant containing inhibitor of interest) pre-incubated at 37° C. Aliquots of 150 μL are removed from the donor and the acceptor side after about 1 and 120 min. Transport experiments in both apical-to-basolateral and basolateral-to-apical directions are performed in triplicate at 37° C. in an incubator without shaking. […] Radioactive samples are analyzed by liquid scintillation counting. All other non-radiolabeled samples are kept frozen at -20° C. until analysis by liquid chromatography/tandem mass spectrometry (LC-MS/MS). Transport values of the compounds tested are determined using the following equation (Artursson et al., Biochem. Biophys. Res. Comm. 175: 880-885, 1991): where Papp (cm/min) is the apparent permeability coefficient, ΔQ is the amount of compound found in the acceptor compartment at time t, Δt (min) is the incubation time period, C0 (μg/mL) is the initial concentration of the compound in the donor compartment and A (cm^2) is the surface area of the membrane. […] Under the conditions of this study, the LOQ of absolute radioactivity is 2 dpm for [^14C]-labeled Aliskiren corresponding to 12 nmol/L. Papp values are presented as means±standard deviations of the transport experiments performed (n=3). […]

For the compound `COCCCOc1cc(C[C@@H](C[C@H](N)[C@@H](O)C[C@H](C(=O)NCC(C)(C)C(N)=O)C(C)C)C(C)C)ccc1OC` [Aliskiren, (2S,4S,5S,7S)-5-amino-4-hydroxy-2-isopropyl-7-[4-methoxy-3-(3-methoxy-propoxy)-benzyl]-8-methyl-nonanoic acid (2-carbamoyl-2-methyl-propyl)-amide hemifumarate], the efflux substrate identification result (Caco-2) is given as “substrate for a prominent efflux system”. Under “human, Caco-2, 120 min”, this compound returned an intrinsic permeability of less than 80%.

`OC[C@@H](O)[C@@H](O)[C@H](O)[C@H](O)CO` [Mannitol]: the “apical to basolateral flux of marker (Papp, below threshold)” value (human, Caco-2, 120 min) was less than 0.5 ×10⁻⁶ cm/s.
